Source: patent publication US20020114854A1, “Chinese herb medicine composition for cancer prophylaxis and therapy” (priority 2001, published 2002)

Experiments:
Type in all cases: cell-based
[1] = tested on: esophagus cancer cell strain CE-81; experiment: survival rate of esophagus cancer cell strain CE-81 (CTAQ cell activity, OD 492 nm); design: dose or concentration left out as unconfirmed; settings: treated 96 hours
Description: Regarding to the cell strain culture in following embodiments, the culture solution of Ham's F 12/DMEM (v/v 1:1) including 10% (v/v) fetus cattle serum (FCS) and antibiotics (100 μg/ml streptomycin, 100 IU/ml penicillin, 1 μg/ml amphotericin) is used for cultivating all cell strains at 37° C., 5% CO2. When the cell grows to 80% full, the cell is washed down by Trypsin-EDTA to do the sub-culture. For the sub-culture, the cell is rinsed by HBSS first, washed down by Trypsin-EDTA, and centrifugated at 1000 rpm, 25° C. for 10 minutes. Sequentially, the cell is diluted by four times culture solution to be continuously cultivated. In addition, the sub-culture is done once per week. […]
The esophagus cancer cell strain, CE-81, is washed down by Trypsin-EDTA, centrifugated, and diluted to a cell concentration of 10^6 cells/ml by FCS-free culture solution. […] After different treating time, the cell strain CE-81 is added […] cell activity detecting agent CTAQTM, and the cell activity is detected at OD 492 nm by multiple frequency scanner. […] Thus, the survival rate of cell (%) is obtained via comparing the determined value difference between after and before adding CTAQ with the standard curve by intercalation.

[2] = tested on: cervical cancer cell strain CC-135; experiment: survival rate of cervical cancer cell strain CC-135 (CTAQ cell activity); design: dose or concentration left out as unconfirmed; settings: 10 p, 1.0 p or 0.1 p cis-Platine, treated 24 hours
[3] = tested on: ovary cancer cell strain OC-117; experiment: survival rate of ovary cancer cell strain OC-117 (CTAQ cell activity); settings: 10 p (20 mg/ml) cis-Platine, treated over 48 hours
[4] = tested on: bladder cancer cell strain Bladder-3; experiment: survival rate of bladder cancer cell strain Bladder-3 (CTAQ cell activity); design: dose or concentration left out as unconfirmed; settings: treated over 48 hours

Compound: [NH2][Pt]([NH2])([Cl])[Cl] [cis-Platine]
- survival rate of CE-81 [1]: about 60%
- survival rate of CC-135 [2]: about 50%
- survival rate of OC-117 [3]: below 20%
- inhibition effect on Bladder-3 (in words) [4]: significant inhibition effect
